Reference: patent US12624004B2 (Fudan University, priority 2019, dated 2026)
Counter-ions that a name gives are not always drawn. Like-named read-outs stand apart in the source and are kept apart here.

Experiments:
κ opioid receptor = molecular target: T1, κ opioid receptor (Homo sapiens, UniProt P41145); test: Competition binding assay on membranes of CHO cells expressing κ opioid receptor, [3H]-labeled ligand; conditions: for Ki: read-out: κOR Ki
T1 construct: expressed in transfected cells; host or cells: CHO cells (membranes)
Procedure, shortened: (§1)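 CHO membranes (20–30 μg protein) incubated with [3H]-labeled ligand at 1–2 nM and test compounds, 30 min at 30° C; nonspecific binding with 1 μM corresponding ligand. Filtered on GF/C, washed with 50 mM Tris-HCl pH 7.4, scintillation-counted. IC50 converted to Ki by Ki=IC50/(1+[L]/Kd).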

μ opioid receptor = molecular target: T2, μ opioid receptor (Homo sapiens, UniProt P35372); test: Competition binding assay on membranes of CHO cells expressing μ opioid receptor, [3H]-labeled ligand; conditions: for Ki: read-out: μOR Ki
T2 construct: expressed in transfected cells; host or cells: CHO cells (membranes)
Procedure, shortened: as §1

δ opioid receptor = molecular target: T3, δ opioid receptor (Homo sapiens, UniProt P41143); test: Competition binding assay on membranes of CHO cells expressing δ opioid receptor, [3H]-labeled ligand; conditions: for Ki: read-out: δOR Ki
T3 construct: expressed in transfected cells; host or cells: CHO cells (membranes)
Procedure, shortened: as §1

Female mice = test: In vivo hot plate method analgesia test; conditions: intraperitoneal; for % MPE (5 mg/kg): Table 2-2, hot plate 55° C.; for Maximum percentage effective analgesia (% MPE): Table 5-2, hot plate 55° C.; for % MPE @ 10 mg/kg: Table 3-2, hot plate 55° C.
Procedure, shortened: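 Female mice (~20 g) on a 55° C hot plate, hindpaw response latency as pain threshold (pre-screen 5–30 s, 60 s cut-off). Latencies at 15, 30, 60 and 120 min after intraperitoneal dosing. %MPE = (post−pre latency)/(60−pre)×100, ED50 derived from %MPE.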

[1] = 0.5 h, Table 2-1, 1 μM concentration of compound, read-out: κOR Binding rate (%)
[2] = 0.5 h, Table 5-1, 1 μM concentration of compound, read-out: κOR Combination rate (%)
[3] = 0.5 h, Table 5-1, 1 μM concentration of compound, read-out: μOR Combination rate (%)
[4] = 0.5 h, Table 5-1, 1 μM concentration of compound, read-out: δOR Combination rate (%)
[5] = 0.5 h, Table 3-1, 1 μM concentration of compounds, read-out: κOR Binding rate (%)
[6] = Table 3-1, 1 μM concentration of compounds, read-out: μOR Binding rate (%)
[7] = 0.5 h, Table 3-1, 1 μM concentration of compounds, read-out: δOR Binding rate (%)
[8] = 0.5 h, Table 2-1, 1 μM concentration of compound, read-out: δOR Binding rate (%)

SMILES: COc1cccc(C2(O)CCN(S(=O)(=O)Cc3cccc(C(F)(F)F)c3)CC2CN(C)C)c1.Cl (stereo not shown) [FWBH10, 3-((Dimethylamino)methyl)-4-(3-methoxyphenyl)-1-((3-(trifluoromethyl)benzyl)sulfonyl) piperidin-4-ol hydrochloride]
- inhibition at 1 µM (κ opioid receptor; [1]): 30.1 ± 0.7%
- Ki (μ opioid receptor; Table 2-1): 4.68 ± 0.12 nM
- Ki (δ opioid receptor; Table 2-1): 3650 ± 1250 nM
- % MPE (5 mg/kg) (Female mice; 5 mg/kg dose): 72.41%

SMILES: COc1cccc(C2(O)CCN(C(=O)c3cc(F)c(F)cc3F)CC2CN(C)C)c1.Cl (stereo not shown) [FWBE5, (3-((Dimethylamino)methyl)-4-hydroxy-4-(3-methoxyphenyl)piperidin-1-yl)(2,4,5-trifluorophenyl)methanone hydrochloride]
- inhibition at 1 µM (κ opioid receptor; [2]): 23 ± 5.9%
- inhibition at 1 µM (μ opioid receptor; [3]): 13 ± 0.2%
- inhibition at 1 µM (δ opioid receptor; [4]): 7 ± 6.3%
- Maximum percentage effective analgesia (% MPE) (Female mice; 10 mg/kg dose): 3%

SMILES: COc1cccc(C2(O)CCC(N(C)S(=O)(=O)c3ccccc3)CC2CN(C)C)c1.Cl (stereo not shown) [N-(3-((Dimethylamino)methyl)-4-hydroxy-4-(3-methoxyphenyl)cyclohexyl)-N-methylbenzenesulfonamide hydrochloride]
- inhibition at 10 µM (κ opioid receptor; 0.5 h, Table 1-1, 10 μM concentration of compound, read-out: κOR Binding rate (%)): 46.7 ± 9.2%
- inhibition at 10 µM (μ opioid receptor; Table 1-1, 10 μM concentration of compound, mean ± SD of three measurements, read-out: μOR Binding rate (%)): 86.7 ± 1.6%
- inhibition at 10 µM (δ opioid receptor; 0.5 h, Table 1-1, 10 μM concentration of compound, read-out: δOR Binding rate (%)): 0%
- Maximum percentage effective analgesic (% MPE) (Female mice; Table 1-2, hot plate 55° C., 5 mg/kg dose): 15.8%

SMILES: COc1cccc(C2(O)CCN(C(=O)Cc3cccs3)CC2CN(C)C)c1.Cl (stereo not shown) [FWBE8, 1-(3-((Dimethylamino)methyl)-4-hydroxy-4-(3-methoxyphenyl)piperidin-1-yl)-2-(thiophen-2-yl)ethyl-1-one hydrochloride]
- inhibition at 1 µM (κ opioid receptor; [2]): 32.5 ± 4.4%
- Ki (μ opioid receptor; Table 5-1): 34.8 ± 1.1 nM
- inhibition at 1 µM (δ opioid receptor; [4]): 18.7 ± 1.9%
- Maximum percentage effective analgesia (% MPE) (Female mice; 10 mg/kg dose): 93.0%

SMILES: COc1cccc(C2(O)CCN(C(=O)Nc3cc(Cl)c(Cl)c(Cl)c3)CC2CN(C)C)c1 (stereo not shown) [FWBF6, 3-((Dimethylamino)methyl)-4-hydroxy-4-(3-methoxyphenyl)-N-(3,4,5-trichlorophenyl) piperidine-1-carboxamide hydrochloride]
- inhibition at 1 µM (κ opioid receptor; [5]): 0%
- inhibition at 1 µM (μ opioid receptor; [6]): 13.2 ± 8%
- inhibition at 1 µM (δ opioid receptor; [7]): 0%
- % MPE @ 10 mg/kg (Female mice; 10 mg/kg dose): 4.54%

SMILES: COc1cccc(C2(O)CCN(C(=O)Cc3cccc(C#N)c3)CC2CN(C)C)c1.Cl (stereo not shown) [FWBE21, 3-(2-(3-((Dimethylamino)methyl)-4-hydroxy-4-(3-methoxyphenyl)piperidin-1-yl)-2-oxoethyl) benzonitrile hydrochloride]
- inhibition at 1 µM (κ opioid receptor; [2]): 42.3 ± 3.3%
- inhibition at 1 µM (μ opioid receptor; [3]): 28.9 ± 17%
- inhibition at 1 µM (δ opioid receptor; [4]): 25.4 ± 4.4%
- Maximum percentage effective analgesia (% MPE) (Female mice; 10 mg/kg dose): 67.09%

SMILES: COc1cccc(C2(O)CCN(S(=O)(=O)Cc3ccc(C)cc3)CC2CN(C)C)c1.Cl (stereo not shown) [FWBH8, 3-((Dimethylamino)methyl)-4-(3-methoxyphenyl)-1-((4-methylbenzyl)sulfonyl)piperidin-4-ol hydrochloride]
- inhibition at 1 µM (κ opioid receptor; [1]): 29 ± 0.32%
- Ki (μ opioid receptor; Table 2-1): 247 ± 49.4 nM
- inhibition at 1 µM (δ opioid receptor; [8]): 11.9 ± 1.31%
- % MPE (5 mg/kg) (Female mice; 5 mg/kg dose): 17.36%

SMILES: COc1cccc(C2(O)CCN(C(=O)Cc3ccccc3)CC2CN(C)C)c1.Cl (stereo not shown) [FWBE3, 1-(3-((Dimethylamino)methyl)-4-hydroxy-4-(3-methoxyphenyl)piperidin-1-yl)-2-phenylethyl-1-one hydrochloride]
- inhibition at 1 µM (κ opioid receptor; 0.5 h, read-out: κOR Combination rate (%)): 23.4 ± 5.7%
- inhibition at 1 µM (μ opioid receptor; 0.5 h, read-out: μOR Combination rate (%)): 41.1 ± 2.3%
- inhibition at 1 µM (δ opioid receptor; 0.5 h, read-out: δOR Combination rate (%)): 11.7 ± 0.9%
- Maximum percentage effective analgesia (% MPE) (Female mice; 10 mg/kg dose): 63.5%

SMILES: COc1cccc([C@@]2(O)CCN(S(=O)(=O)Cc3ccccc3)C[C@@H]2CN(C)C)c1.Cl [(3S,4R)-1-(Benzylsulfonyl)-3-((dimethylamino)methyl)-4-(3-methoxyphenyl)piperidin-4-ol hydrochloride]
- inhibition at 0.1 µM (κ opioid receptor; Table 4-1 footnote a, 0.1 μM, read-out: κOR Inhibition rate): 20.75 ± 0.13%
- inhibition at 0.1 µM (μ opioid receptor; Table 4-1 footnote a, 0.1 μM, read-out: μOR Inhibition rate): 24.5 ± 0.64%
- inhibition at 0.1 µM (δ opioid receptor; Table 4-1 footnote a, 0.1 μM, read-out: δOR Inhibition rate): 7.3 ± 4.5%
- % MPE (Female mice; Table 4-2, hot plate 55° C., 10 mg/kg dose): 13.4%

SMILES: COc1cccc(C2(O)CCN(C(=O)NCc3ccccc3)CC2CN(C)C)c1 (stereo not shown) [FWBF12, N-Benzyl-3-((dimethylamino)methyl)-4-hydroxy-4-(3-methoxyphenyl)piperidine-1-carboxamide hydrochloride]
- inhibition at 1 µM (κ opioid receptor; [5]): 5.1 ± 4%
- inhibition at 1 µM (μ opioid receptor; [6]): 35.1 ± 4.4%
- inhibition at 1 µM (δ opioid receptor; [7]): 2.6 ± 2.9%
- % MPE @ 10 mg/kg (Female mice; 10 mg/kg dose): 15.07%

SMILES: C=CCS(=O)(=O)N1CCC(O)(c2cccc(OC)c2)C(CN(C)C)C1.Cl (stereo not shown) [FWBH21, 1-(Allylsulfonyl)-3-((dimethylamino)methyl)-4-(3-methoxyphenyl)piperidin-4-ol hydrochloride]
- inhibition at 1 µM (κ opioid receptor; [1]): 17.1%
- Ki (μ opioid receptor; Table 2-1): 40.4 ± 4.99 nM
- inhibition at 1 µM (δ opioid receptor; [8]): 31.52 ± 0.21%
- % MPE (5 mg/kg) (Female mice; 5 mg/kg dose): 18.80%

SMILES: COc1cccc(C2(O)CCN(S(=O)(=O)C[C@@]34CC[C@@H](CC3=O)C4(C)C)CC2CN(C)C)c1 (stereo partly drawn) [FWBH24, (1R,4S)-1-(((3-((Dimethylamino)methyl)-4-hydroxy-4-(3-methoxyphenyl)piperidin-1-yl)sulfonyl)methyl)-7,7-Dimethylbicyclo[2.2.1]heptan-2-one hydrochloride]
- Ki (κ opioid receptor; Table 2-1): 433 ± 15.3 nM
- Ki (μ opioid receptor; Table 2-1): 65.1 ± 5.36 nM
- inhibition at 1 µM (δ opioid receptor; [8]): 11.1 ± 1.3%
- % MPE (5 mg/kg) (Female mice; 5 mg/kg dose): 54.81%

SMILES: COc1cccc(C2(O)CCN(S(=O)(=O)Cc3cccc(Br)c3)CC2CN(C)C)c1.Cl (stereo not shown) [FWBH13, 1-((3-Bromobenzyl)sulfonyl)-3-((dimethylamino)methyl)-4-(3-methoxyphenyl)piperidin-4-ol hydrochloride]
- inhibition at 1 µM (κ opioid receptor; [1]): 42.1 ± 2.29%
- Ki (μ opioid receptor; Table 2-1): 18.2 ± 4.37 nM
- inhibition at 1 µM (δ opioid receptor; [8]): 15.1 ± 2.47%
- % MPE (5 mg/kg) (Female mice; 5 mg/kg dose): 81.71%

SMILES: COc1cccc(C2(O)CCN(C(=O)Cc3cccc(OC(F)(F)F)c3)CC2CN(C)C)c1.Cl (stereo not shown) [FWBE6, 1-(3-((Dimethylamino)methyl)-4-hydroxy-4-(3-methoxyphenyl)piperidin-1-yl)-2-(3-(trifluoromethoxy)phenyl)ethyl-1-one hydrochloride]
- inhibition at 1 µM (κ opioid receptor; [2]): 13.5 ± 0.6%
- inhibition at 1 µM (μ opioid receptor; [3]): 21.5 ± 0.1%
- inhibition at 1 µM (δ opioid receptor; [4]): 13.2 ± 1%
- Maximum percentage effective analgesia (% MPE) (Female mice; 10 mg/kg dose): 47%

SMILES: COc1cccc(C2(O)CCN(C(=O)Nc3cccs3)CC2CN(C)C)c1 (stereo not shown) [FWBF19, 3-((Dimethylamino)methyl)-4-hydroxy-4-(3-methoxyphenyl)-N-(thiophen-2-yl)piperidine-1-carboxamide hydrochloride]
- inhibition at 1 µM (κ opioid receptor; [5]): 27.5 ± 6.4%
- inhibition at 1 µM (μ opioid receptor; [6]): 0%
- inhibition at 1 µM (δ opioid receptor; [7]): 38.2 ± 9.4%
- % MPE @ 10 mg/kg (Female mice; 10 mg/kg dose): 20.07%

SMILES: CCCCS(=O)(=O)N1CCC(O)(c2cccc(OC)c2)C(CN(C)C)C1.Cl (stereo not shown) [FWBH15, 1-(Butylsulfonyl)-3-((dimethylamino)methyl)-4-(3-methoxyphenyl)piperidin-4-ol hydrochloride]
- inhibition at 1 µM (κ opioid receptor; [1]): 9.86 ± 2.67%
- Ki (μ opioid receptor; Table 2-1): 34.9 ± 9.4 nM
- inhibition at 1 µM (δ opioid receptor; [8]): 27.2 ± 1.43%
- % MPE (5 mg/kg) (Female mice; 5 mg/kg dose): 93.73%

SMILES: CCS(=O)(=O)N1CCC(O)(c2cccc(OC)c2)C(CN(C)C)C1.Cl (stereo not shown) [FWBH18, 3-((Dimethylamino)methyl)-1-(ethylsulfonyl)-4-(3-methoxyphenyl)piperidin-4-ol hydrochloride]
- inhibition at 1 µM (κ opioid receptor; [1]): 13.5 ± 2.22%
- Ki (μ opioid receptor; Table 2-1): 180 ± 11.7 nM
- inhibition at 1 µM (δ opioid receptor; [8]): 24 ± 0.49%
- % MPE (5 mg/kg) (Female mice; 5 mg/kg dose): 15.57%

SMILES: COc1cccc(C2(O)CCN(C(=O)Nc3ccc4ccccc4c3)CC2CN(C)C)c1 (stereo not shown) [FWBF11, 3-((Dimethylamino)methyl)-4-hydroxy-4-(3-methoxyphenyl)-N-(naphthalen-2-yl)piperidine-1-carboxamide hydrochloride]
- inhibition at 1 µM (κ opioid receptor; [5]): 3.9%
- inhibition at 1 µM (μ opioid receptor; [6]): 0.5%
- inhibition at 1 µM (δ opioid receptor; [7]): 0%
- % MPE @ 10 mg/kg (Female mice; 10 mg/kg dose): 4.41%

SMILES: COc1cccc(C2(O)CCN(C(=O)Cc3cccc([N+](=O)[O-])c3)CC2CN(C)C)c1.Cl (stereo not shown) [FWBE22, 1-(3-((Dimethylamino)methyl)-4-hydroxy-4-(3-methoxyphenyl)piperidin-1-yl)-2-(3-nitrophenyl) ethyl-1-one hydrochloride]
- Ki (κ opioid receptor; Table 5-1): 1990 ± 146 nM
- Ki (μ opioid receptor; Table 5-1): 85.6 ± 15.4 nM
- Ki (δ opioid receptor; Table 5-1): > 10000 nM
- Maximum percentage effective analgesia (% MPE) (Female mice; 10 mg/kg dose): 72.88%
